Source: patent US20260226006A1, “INDOLE COMPOUND, PREPARATION METHOD THEREFOR AND USE THEREOF” (SUZHOU MERNA THERAPEUTICS CO. LTD, priority 2023, published 2026)

B1: recombinant NAP1L2 protein: human recombinant NAP1L2 protein (Abcam, Cat. #ab117213) (protein, UniProt Q9ULW6 1-460, looked up)
Nucleosome assembly protein …: MAESENRKELSESSQEEAGNQIMVEGLGEHLERGEDAAAGLGDDGKCGEEAAAGLGEEGENGEDTAAGSGEDGKKGGDTDEDSEADRPKGLIGYVLDTDFVESLPVKVKYRVLALKKLQTRAANLESKFLREFHDIERKFAEMYQPLLEKRRQIINAIYEPTEEECEYKSDSEDCDDEEMCHEEMYGNEEGMVHEYVDEDDGYEDYYYDYAVEEEEEEEEEDDIEATGEENKEEEDPKGIPDFWLTVLKNVDTLTPLIKKYDEPILKLLTDIKVKLSDPGEPLSFTLEFHFKPNEYFKNELLTKTYVLKSKLAYYDPHPYRGTAIEYSTGCEIDWNEGKNVTLKTIKKKQKHRIWGTIRTVTEDFPKDSFFNFFSPHGITSNGRDGNDDFLLGHNLRTYIIPRSVLFFSGDALESQQEGVVREVNDAIYDKIIYDNWMAAIEEVKACCKNLEALVEDIDR

Columns and labels:
HaCat cells [1] = assay: m6A methylation level of human HaCat keratinocytes, EpiQuik m6A RNA methylation quantification kit (Example 20); type: cell-based; details: 50 nM drug alone; for fold induction at 0.05 µM: Homo sapiens, HaCat cells, 24 hours, read-out: m6A fold change relative to control group 1
Experimental: HaCat cells were cultured in a DMEM culture medium containing 10% fetal bovine serum, 100 U/mL penicillin, and 100 μg/mL streptomycin. Culture dishes were placed in an incubator containing 5% CO2 for culture at 37° C. for 24 hours. An equal volume of DMSO was added in control group 1, 50 nM sorafenib, capecitabine, docetaxel, and osimertinib were respectively added in control groups A, B, C, and D, and 400 nM test compounds or nicotinamide were respectively added in sample groups A1-17, B1-17, C1-17, and D1-17 after the addition of 50 nM corresponding compounds. The cells were continuously cultured for 24 hours, washed with PBS, and then collected by high-speed centrifugation. Total RNA was extracted using a Trizol reagent (Sigma Aldrich), and RNA m6A methylation of a sample was quantitatively detected using an EpiQuik m6A RNA methylation quantification kit. The concentrations of positive control samples for a standard curve were 0.01 ng/μl, 0.02 ng/μl, 0.05 ng/μl, 0.1 ng/μl, 0.2 ng/μl, and 0.5 ng/μl. The absorbance at 450 nm was read using a microplate reader (Tecan GENios). A quantitative calculation formula for m6A is as follows:
m6A (ng)=(absorbance of sample well−absorbance of background well)/slope of standard curve m6A (%)=m6A (ng)/RNA amount of sample (ng)*100%.

[2] = system: skin of hind limb toes of mice; assay: Chemotherapeutic drug-induced mouse models with hand-foot syndrome (Example 23); type: in vivo, ICR mice; details: for degree of swelling of hind limb toes / epidermal layer and stratum corneum in skin tissues of hind limb toes (pathological staining): modeling drug oral for 14 days; for skin appearance of hind limb toes: modeling for 14 days, capecitabine 200 mg/kg or docetaxel 25 mg/kg oral
Description: After adaptive feeding for 7 days, SPF-grade ICR mice (male, 5-6 weeks old, with a body weight of approximately 35 g) were randomly divided into groups, including a blank control group (6 mice), a capecitabine modeling group (6 mice), a docetaxel modeling group (6 mice), a capecitabine+compound 2b group (6 mice), a docetaxel+compound 2b group (6 mice), a capecitabine+nicotinamide group (6 mice), and a docetaxel+nicotinamide group (6 mice). The groups were respectively administered corresponding modeling drugs by oral gavage (capecitabine at 200 mg/kg and docetaxel at 25 mg/kg) once daily, and the blank control group was administered an equivalent volume of normal saline. After administration with the chemotherapeutic drugs for 2 weeks, the compound ointments (at a compound content of 3%) used in Example 22 were respectively applied topically in the groups, or nicotinamide was orally administered (100 mg/kg) once daily continuously for 16 days.
Measurement of the degree of swelling of toes: The degree of swelling of hind limb toes of the mice was measured using a toe swelling tester (KW-7C, Nanjing Calvin Biotechnology Co., Ltd.) before administration with the modeling drugs, after administration with the modeling drugs for 2 weeks, and before sacrifice, respectively. Before measurement, ankle joints of hind paws of the mice were marked at same positions before administration, after administration for 2 weeks, and before sacrifice. During measurement, water was properly located at the same level as the marked positions, and numerical values were recorded after becoming stable.
Pathological staining of skin tissues: Skin tissue samples were selected from hind limb toes of the mice and placed in 4% paraformaldehyde for fixation at room temperature for 4 hours. Then, the tissues were taken out and rinsed with running water for several hours. The samples were subjected to dehydration treatment with 70%, 80%, and 90% ethanol solutions, followed by treatment with a mixed solution of equal amounts of absolute alcohol and xylene for 15 minutes, and then permeabilized twice with a xylene solution for 15 minutes each time until the samples became transparent. The samples were placed in a mixture of half xylene and half paraffin for soaking for 15 minutes, and then, paraffin I and paraffin II were added for wax penetration for one hour, respectively. After embedding with paraffin, the samples were sectioned, baked, dewaxed, and hydrated. Then, the hydrated sections were placed in a hematoxylin solution (ZSGB-BIO, article No. 23041001) for staining for 3 minutes, and a differentiation solution of hydrochloric acid in ethanol was added for differentiation for 15 seconds. After rinsing with water, a Scott bluing solution (Servicebio, article No. 20230801) was added for bluing for 15 seconds. After rinsing with running water, the sections were stained with an eosin solution (Solarbio, article No. 33535) for 3 minutes, rinsed with running water, dehydrated, permeabilized, sealed, and inspected under a microscope.
Immunohistochemical staining: After baking, dewaxing, and hydration, paraffin sections of skin tissues of hind limb toes of the mice were subjected to antigen retrieval using a 0.2 M citric acid buffer solution (containing 1.534 g of citric acid, 3.1 g of sodium citrate, and 100 mL of distilled water, pH 4.7). Endogenous […] was removed using 3% hydrogen peroxide (Shandong Annjet High-Tech Disinfection Technology Co., Ltd., article No. 20290902), and the sections were incubated at room temperature for 10 minutes and then fully rinsed with a PBS buffer solution (containing 8 g of NaCl, 0.2 g of KCl, 1.44 g of Na2HPO4, and 1 M HCl, pH 7.4). The sections were permeabilized with 0.5% Triron-X-100 (AmyJet Scientific, article No. A-CSH436-100 mL), respectively permeabilized with mouse anti-IL-1β and rabbit IL-8 for 10 minutes, and not permeabilized with rabbit anti-IL-6. […]

HaCat cells [3] = assay: m6A methylation level of drug-treated HaCat keratinocytes by nanopore sequencing (Example 14); type: cell-based, human; details: 50 nM drug, 24 hours
Experimental: 1*10^8 HaCat cells were seeded in culture dishes, into which 50 nM drugs (including sorafenib, capecitabine, docetaxel, and osimertinib) were added, respectively. The cells were cultured in an incubator containing 5% CO2 at 37° C. for 24 hours and washed with PBS after culture media were removed. Centrifugation was performed, the supernatant was discarded, and then, 400 μL of an RLT cell lysis buffer (QIAGEN, Cat. #79216) was added. A portion of samples were selected, into which 400 μL of 70% ethanol was added. The mixture was evenly stirred and then transferred to an RNeasy mini column, and RNA was extracted using an RNeasy mini kit (QIAGEN, Cat. #74104). 2 μL of an RNA sample was selected and dissolved in 98 μL of a 10 mM Tris-HCl buffer solution, and the absorbance at 260 nm was measured using a Nanodrop (Thermo Fisher Scientific) to determine the RNA concentration.
40 μg of an RNA sample was selected for enrichment of mRNA (PolyA+RNA) using an NEBNext Poly(A) mRNA magnetic isolation module (NEB, Cat. #E7490), and then, a 3′ end of the above enriched mRNA (PolyA+RNA) molecule was ligated with reverse transcription adapter RTA using a direct RNA sequencing kit (Oxford Nanopore Technologies, Cat. #SQK-RNA002). A reverse transcription reaction was performed with the mRNA (PolyA+RNA) molecule as a template to synthesize a complementary strand, a terminal end of the reverse transcription adapter RTA was ligated with a sequencing adapter (RNA adapter) to form a final sequencing library, and quantitative detection was performed using a Qubit™ dsDNA HS assay kit (Invitrogen, Cat. #LOT2133187).
After quality inspection of the library, the prepared sequencing library was loaded onto a PromethION flow cell chip (Oxford Nanopore Technologies, Cat. #FLO-MIN106D), and placed in a PromethION sequencer (Oxford Nanopore Technologies) for sequencing by selecting a matched sequencing mode. Basecalling was performed on sequencing data through guppy, and m6A methylation analysis was performed on original fast5 data.

[4] = system: NAP1L2 mRNA in HaCat cells; assay: NAP1L2 mRNA expression in HaCat cells by RT-PCR (Example 16); type: cell-based, human; details: HaCat keratinocytes, 24 hours
Experimental: 1*10^8 HaCat cells were seeded in culture dishes, into which a recombinant protein of m6A methylase METTL3 (Abcam, Cat. #ab271611) and a recombinant protein of m6A demethylase FTO (Abcam, Cat. #ab271525) were added, or METTL3 siRNA (sh-METTL3, GeneChem) and FTO siRNA (sh-FTO, GeneChem) were transfected, respectively. The cells were placed in an incubator containing 5% carbon dioxide for culture at 37° C. for 24 hours, washed with PBS, and then collected by high-speed centrifugation. Total RNA was extracted using a Trizol reagent (Sigma Aldrich). 1 μg of RNA was reverse-transcribed into cDNA using a cDNA reverse transcription kit (Transgene Biotech, Cat. #AT311-03). 1.25 μL of a primer (Beyotime, Cat. #QH18721S), 10 μL of an iTag Universal SYBR Green supermix (Bio-Rad, Cat. #172-5125), and an appropriate amount of DEPC ultrapure water were added to formulate 20 μL of a reaction solution to perform an RT-PCR reaction. Upon completion of the reaction, the reaction solution was subjected to agarose gel electrophoresis to determine the mRNA expression amount of NAP1L2.

[5] = system: MMP2 and MMP9 in HaCat keratinocytes; assay: Expression of matrix metalloproteinases in HaCat keratinocytes, RT-PCR and Western blot (Example 17); type: cell-based, human; details: 24 hours
Experimental: 1*10^8 HaCat cells were seeded in culture dishes, into which a human recombinant NAP1L2 protein (Abcam, Cat. #ab117213), sorafenib, capecitabine, docetaxel, and osimertinib were added, or NAP1L2 siRNA (sh-NAP1L2, GeneChem) was transfected, respectively. The cells were placed in an incubator containing 5% carbon dioxide for culture at 37° C. for 24 hours, washed with PBS, and then collected by high-speed centrifugation. An RLT lysis buffer was added to the above collected cells, the mixture was shaken at 4° C. for half an hour and centrifuged to collect the supernatant, and the expression of matrix metalloproteins was measured by Western blot.
Total RNA was extracted from the above collected cells using a Trizol reagent (Sigma Aldrich). 1 μg of RNA was reverse-transcribed into cDNA using a cDNA reverse transcription kit (Transgene Biotech, Cat. #AT311-03). 1.25 μL of a primer (SinoBiological, Cat. #HP100168&HP100367), 10 μL of an iTagUniversal SYBR Green supermix (Bio-Rad, Cat. #172-5125), and an appropriate amount of DEPC ultrapure water were added to formulate 20 μL of a reaction solution to perform an RT-PCR reaction. Upon completion of the reaction, the reaction solution was subjected to agarose gel electrophoresis to determine the mRNA expression amounts of the matrix metalloproteins.

Molecule | m6A methylation level of human HaCat keratinocytes (HaCat cells [1]) | fold induction at 0.05 µM (HaCat cells [1]) | degree of swelling of hind limb toes [2] | epidermal layer and stratum corneum in skin tissues of hind limb toes (pathological staining) [2] | skin appearance of hind limb toes [2] | m6A methylation level of HaCat cells, increase compared with blank control group (HaCat cells [3]) | mRNA expression amount of NAP1L2 [4] | further results
CCCCCOC(=O)Nc1nc(=O)n([C@@H]2O[C@H](C)[C@@H](O)[C@H]2O)cc1F [Capecitabine, capecitabine] | significantly increase | 6.7 | swelling of the hind limb toes of the mice is caused | significantly thickened | obvious erythema, rhagades, and blisters | 6.01 times | – | cytokine IL-8 in skin tissues of hind limb toes (immunohistochemistry) ([2]; capecitabine oral for 14 days): significantly increased
CC(=O)O[C@@]12CO[C@@H]1C[C@H](O)[C@@]1(C)C(=O)[C@H](O)C3=C(C)[C@@H](OC(=O)[C@H](O)[C@@H](NC(=O)OC(C)(C)C)c4ccccc4)C[C@@](O)([C@@H](OC(=O)c4ccccc4)[C@H]21)C3(C)C [Docetaxel, docetaxel] | significantly increase | 5.6 | swelling of the hind limb toes of the mice is caused | significantly thickened | obvious erythema, rhagades, and blisters | 3.97 times | – | cytokine IL-6 in skin tissues of hind limb toes (immunohistochemistry) ([2]; docetaxel oral for 14 days): significantly increased
m6A methylase METTL3: recombinant protein of m6A methylase METTL3 (Abcam, Cat. #ab271611) | – | – | – | – | – | – | significantly increased | –
m6A demethylase FTO: recombinant protein of m6A demethylase FTO (Abcam, Cat. #ab271525) | – | – | – | – | – | – | significantly decreased | –
B1 | – | – | – | – | – | – | – | mRNA and protein expression amounts of matrix metalloproteinases MMP2 and MMP9 [5]: significantly increased
